# Assay results from patent US12600714B2, “Substituted pyrazinecarboxamide compounds for treating diseases related to EGFR mutation” (WIGEN BIOMEDICINE TECHNOLOGY (SHANGHAI) CO., LTD., priority 2020, dated 2026).
# Assays:
# EGFR (L858R/T790M/C797S) = EGFR (L858R/T790M/C797S) (Homo sapiens, UniProt P00533, C797S/L858R/T790M); assay: HTRF inhibitory activity assay against EGFR (L858R/T790M/C797S) enzyme; assay type: biochemical; settings: read-out: EGFR (L858R/T790M/C797S) inhibition (%) (0.3 nM compound)
# Protocol: (§1) Inhibitory Activity Assay of the Compounds Disclosed Herein Against EGFR (del19/T790M/C797S), EGFR (L858R/T790M/C797S) or EGFR (WT) Enzymes
# (§2) The inhibitory effects of the compounds against EGFR (del19/T790M/C797S), EGFR (L858R/T790M/C797S) or EGFR (WT) enzyme activity was determined by using HTRF. The procedures are as follows:
# (§3) The WT or mutant EGFR proteins were incubated with a serially diluted compounds at 28° C. for 10 min followed by addition of biotin-labeled general tyrosine kinase (TK) substrate and ATP. The mixture was incubated at room temperature for 40 min for reaction. After the termination of the reaction, an Eu3+-Cryptate-labeled antibody against TK and streptavidin-XL665 were added and the mixture was incubated at room temperature for 60 min. The luminescences at 615 nm and 665 nm were detected and the ratio of 665/615 was calculated to quantify the level of TK substrate phosphorylation. Inhibition % and IC50 of the compounds were calculated relative to the control group.
# [1] = molecular target: Ba/F3 (EGFR^del19/T790M/C797S) triple-mutant cells (Homo sapiens, UniProt P00533, T790M/C797S, cells depend on it, form not given); assay: Antiproliferative activity against Ba/F3 (EGFR del19/T790M/C797S) triple-mutant cells, Cell Titer Glow; assay type: cell-based; settings: three days after addition of compounds; read-out: Antiproliferative activity BaF3(EGFR^del19/T790M/C797S) IC50
# Protocol: (§4) Antiproliferative Activity of the Compounds Disclosed Herein Against Ba/F3 (EGFR^del19/T790M/C797S) Triple-Mutant Cells and A431 (EGFR WT) Cells
# (§5) • 3000 Ba/F3 cells carrying EGFR (del19/T790M/C797S) or 2000 A431 cells were seeded in a 384-well plate. After one day, serially diluted compounds were added (up to 500 nM for Ba/F3 cells and up to 10 μM for A431 cells). Three days after the addition of the compounds, Cell Titer Glow was added to evaluate cell growth and the percentage cell growth inhibition by the compounds and the IC50 values were calculated.
# A431 (EGFR WT) cells = assay: Antiproliferative activity against A431 (EGFR WT) cells, Cell Titer Glow; assay type: cell-based; settings: Homo sapiens, A-431, 72 h; three days after addition of compounds; read-out: Antiproliferative activity A431 wild-type (WT) IC50
# Protocol: as §4, §5
# EGFR (WT) = EGFR (WT) (Homo sapiens, UniProt P00533); assay: HTRF inhibitory activity assay against EGFR (WT) enzyme; assay type: biochemical
# Protocol: as §1, §2, §3
# EGFR (del19/T790M/C797S) = assay: HTRF inhibitory activity assay against EGFR (del19/T790M/C797S) enzyme; assay type: biochemical
# Method in brief: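 Wild-type or mutant EGFR preincubated with serially diluted compound 10 min at 28 °C, then reacted 40 min at room temperature with biotinylated TK substrate and ATP. Phosphorylation detected by HTRF (Eu-cryptate anti-TK antibody, streptavidin-XL665, 60 min), 665/615 nm ratio; % inhibition and IC50 vs control.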
# Sequence of EGFR (L858R/T790M/C797S) (P00533 25-1210 T790M/C797S/L858R): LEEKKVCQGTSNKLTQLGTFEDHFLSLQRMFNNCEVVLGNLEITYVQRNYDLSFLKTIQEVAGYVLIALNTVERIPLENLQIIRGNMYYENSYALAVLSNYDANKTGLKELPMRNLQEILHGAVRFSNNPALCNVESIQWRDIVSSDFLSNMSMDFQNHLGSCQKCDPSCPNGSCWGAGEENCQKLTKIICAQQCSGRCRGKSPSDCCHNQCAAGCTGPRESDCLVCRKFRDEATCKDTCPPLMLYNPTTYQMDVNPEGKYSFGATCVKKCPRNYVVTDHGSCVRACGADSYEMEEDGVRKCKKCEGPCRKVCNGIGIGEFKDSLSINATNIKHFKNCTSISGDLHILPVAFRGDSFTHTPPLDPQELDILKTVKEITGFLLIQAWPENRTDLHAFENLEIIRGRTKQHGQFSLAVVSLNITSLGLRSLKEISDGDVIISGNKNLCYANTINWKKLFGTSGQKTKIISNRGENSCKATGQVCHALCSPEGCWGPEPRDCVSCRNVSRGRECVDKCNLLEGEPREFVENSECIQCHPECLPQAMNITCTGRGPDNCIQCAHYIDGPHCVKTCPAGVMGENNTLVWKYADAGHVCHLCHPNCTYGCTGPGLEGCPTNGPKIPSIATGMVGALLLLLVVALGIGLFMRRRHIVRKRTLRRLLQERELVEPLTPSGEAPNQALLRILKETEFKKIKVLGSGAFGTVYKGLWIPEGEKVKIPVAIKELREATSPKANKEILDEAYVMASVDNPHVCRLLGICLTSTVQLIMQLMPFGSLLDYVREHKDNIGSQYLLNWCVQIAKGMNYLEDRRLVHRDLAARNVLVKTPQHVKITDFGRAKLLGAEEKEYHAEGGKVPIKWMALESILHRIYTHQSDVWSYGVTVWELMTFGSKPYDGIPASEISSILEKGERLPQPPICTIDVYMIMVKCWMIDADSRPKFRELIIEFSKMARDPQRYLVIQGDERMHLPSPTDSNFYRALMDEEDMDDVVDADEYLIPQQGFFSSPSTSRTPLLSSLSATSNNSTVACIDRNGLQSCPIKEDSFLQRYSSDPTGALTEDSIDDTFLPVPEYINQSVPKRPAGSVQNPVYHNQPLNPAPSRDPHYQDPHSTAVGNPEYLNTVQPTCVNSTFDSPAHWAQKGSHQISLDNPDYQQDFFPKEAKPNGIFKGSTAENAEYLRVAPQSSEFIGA
# Sequence of Ba/F3 (EGFR^del19/T790M/C797S) triple-mutant cells (P00533 with tags, fused parts or gaps DEL746-750/T790M/C797S, form open): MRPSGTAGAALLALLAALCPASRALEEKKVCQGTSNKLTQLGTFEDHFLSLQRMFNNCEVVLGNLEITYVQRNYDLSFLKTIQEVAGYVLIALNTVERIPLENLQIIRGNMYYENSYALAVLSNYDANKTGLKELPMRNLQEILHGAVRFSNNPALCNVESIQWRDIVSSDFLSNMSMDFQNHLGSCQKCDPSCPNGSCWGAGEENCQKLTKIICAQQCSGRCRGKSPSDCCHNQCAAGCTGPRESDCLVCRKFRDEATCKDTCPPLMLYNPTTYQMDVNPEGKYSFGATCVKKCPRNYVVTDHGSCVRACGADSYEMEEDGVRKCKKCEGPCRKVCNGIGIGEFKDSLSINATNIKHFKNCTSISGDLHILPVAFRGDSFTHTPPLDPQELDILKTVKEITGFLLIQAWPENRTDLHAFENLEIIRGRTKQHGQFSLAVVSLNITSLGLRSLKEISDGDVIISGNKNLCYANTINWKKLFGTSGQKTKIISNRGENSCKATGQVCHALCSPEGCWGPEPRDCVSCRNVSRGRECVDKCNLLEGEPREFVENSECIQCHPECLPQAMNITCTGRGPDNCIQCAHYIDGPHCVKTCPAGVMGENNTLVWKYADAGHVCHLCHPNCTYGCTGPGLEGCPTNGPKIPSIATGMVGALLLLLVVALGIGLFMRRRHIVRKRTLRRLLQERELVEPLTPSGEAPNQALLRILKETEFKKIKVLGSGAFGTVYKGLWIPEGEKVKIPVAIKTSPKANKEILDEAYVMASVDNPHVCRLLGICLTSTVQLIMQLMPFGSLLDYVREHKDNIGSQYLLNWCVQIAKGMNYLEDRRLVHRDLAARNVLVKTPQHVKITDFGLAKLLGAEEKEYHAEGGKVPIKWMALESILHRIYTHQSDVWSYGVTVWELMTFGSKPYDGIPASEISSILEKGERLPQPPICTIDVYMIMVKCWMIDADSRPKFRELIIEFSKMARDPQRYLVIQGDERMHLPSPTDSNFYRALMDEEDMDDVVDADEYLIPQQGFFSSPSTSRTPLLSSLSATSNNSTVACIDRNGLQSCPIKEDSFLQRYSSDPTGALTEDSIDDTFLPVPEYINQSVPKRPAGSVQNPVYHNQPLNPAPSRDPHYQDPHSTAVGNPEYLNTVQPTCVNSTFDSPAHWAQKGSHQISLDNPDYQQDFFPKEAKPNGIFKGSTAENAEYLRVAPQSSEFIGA
# Sequence of EGFR (WT) (P00533 25-1210): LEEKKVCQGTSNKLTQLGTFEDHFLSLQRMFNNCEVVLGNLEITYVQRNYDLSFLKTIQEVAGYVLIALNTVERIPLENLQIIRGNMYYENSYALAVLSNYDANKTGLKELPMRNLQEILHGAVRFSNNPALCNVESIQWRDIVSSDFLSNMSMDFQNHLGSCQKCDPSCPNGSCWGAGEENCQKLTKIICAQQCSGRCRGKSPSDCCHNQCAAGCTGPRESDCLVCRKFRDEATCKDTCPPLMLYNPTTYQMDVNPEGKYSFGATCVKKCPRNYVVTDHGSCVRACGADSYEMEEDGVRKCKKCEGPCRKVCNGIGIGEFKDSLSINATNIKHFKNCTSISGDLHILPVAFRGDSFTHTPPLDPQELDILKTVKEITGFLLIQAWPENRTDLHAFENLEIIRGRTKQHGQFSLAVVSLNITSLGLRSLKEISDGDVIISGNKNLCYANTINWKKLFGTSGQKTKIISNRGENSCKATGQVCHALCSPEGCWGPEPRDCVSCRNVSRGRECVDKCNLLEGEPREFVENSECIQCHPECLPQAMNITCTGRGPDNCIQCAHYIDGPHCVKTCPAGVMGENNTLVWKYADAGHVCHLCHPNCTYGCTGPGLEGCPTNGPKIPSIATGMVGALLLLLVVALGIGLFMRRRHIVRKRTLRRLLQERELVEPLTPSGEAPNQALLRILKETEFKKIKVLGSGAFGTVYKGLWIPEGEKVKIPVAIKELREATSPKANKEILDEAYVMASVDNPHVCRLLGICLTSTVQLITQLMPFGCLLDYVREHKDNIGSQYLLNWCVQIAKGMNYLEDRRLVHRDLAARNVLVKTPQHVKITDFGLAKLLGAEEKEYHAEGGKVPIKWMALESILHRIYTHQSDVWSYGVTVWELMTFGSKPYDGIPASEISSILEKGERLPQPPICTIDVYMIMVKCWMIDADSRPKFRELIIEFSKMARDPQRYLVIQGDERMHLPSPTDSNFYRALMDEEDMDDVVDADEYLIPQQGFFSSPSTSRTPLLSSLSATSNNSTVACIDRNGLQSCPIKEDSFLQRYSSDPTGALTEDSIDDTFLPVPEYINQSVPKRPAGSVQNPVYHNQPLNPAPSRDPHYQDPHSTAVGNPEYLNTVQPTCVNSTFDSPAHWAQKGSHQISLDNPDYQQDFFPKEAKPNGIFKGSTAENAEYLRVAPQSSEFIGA
Structure (SMILES),inhibition at 0.0003 µM (EGFR (L858R/T790M/C797S)) [%],GI50 [1] [nM],IC50 (A431 (EGFR WT) cells) [nM],IC50 (EGFR (WT)) [nM],EGFR (del19/T790M/C797S) inhibition (%) (0.3 nM compound) (EGFR (del19/T790M/C797S))
"CCc1nc(C(N)=O)c(Nc2ccc(N3CCC(N4CCN(C)CC4)CC3)c(OC)c2)nc1NC1CCOCC1 [Gilteritinib, gilteritinib, reference compound]",≤ 20,> 500,,,
CN1CCN(C2CCN(c3ccc(Nc4nc(NC5CCOCC5)c(-c5ccccc5)nc4C(N)=O)cc3)CC2)CC1 [compound 1],≤ 20,236,2500,> 300,+ (+ indicates an inhibition less than or equal to 20%)
CN1CCN(C2CCN(c3ccc(Nc4nc(O[C@H]5CCN(C)C5)c(-c5ccccc5)nc4C(N)=O)cc3)CC2)CC1 [compound 2],,,,> 100,+ (+ indicates an inhibition less than or equal to 20%)
CN1CCC(Oc2nc(Nc3ccc(N4CCC(N5CCN(C)CC5)CC4)cc3)c(C(N)=O)nc2-c2ccccc2)CC1 [compound 4],≤ 20,295,1700,> 100,+ (+ indicates an inhibition less than or equal to 20%)
CN1CCN(C2CCN(c3ccc(Nc4nc(Nc5ccccc5)c(-c5ccccc5)nc4C(N)=O)cc3)CC2)CC1 [compound 5],≤ 20,,,> 100,+ (+ indicates an inhibition less than or equal to 20%)
CN1CCN(C2CCN(c3ccc(Nc4nc(N(C)C)c(-c5ccccc5)nc4C(N)=O)cc3)CC2)CC1 [compound 10],,,,> 300,++ (++ indicates an inhibition from 20% to 50%)
CC(C)Nc1nc(Nc2ccc(N3CCC(N4CCN(C)CC4)CC3)cc2)c(C(N)=O)nc1-c1ccccc1 [compound 11],,107,540,> 300,++ (++ indicates an inhibition from 20% to 50%)
CNc1nc(Nc2ccc(N3CCC(N4CCN(C)CC4)CC3)cc2)c(C(N)=O)nc1-c1ccccc1 [compound 13],,197,1300,> 300,+ (+ indicates an inhibition less than or equal to 20%)
CC(C)Oc1nc(Nc2ccc(N3CCC(N4CCN(C)CC4)CC3)cc2)c(C(N)=O)nc1-c1ccccc1 [compound 14],,113,950,> 300,+ (+ indicates an inhibition less than or equal to 20%)
CN1CCN(C2CCN(c3ccc(Nc4nc(NCC(C)(C)O)c(-c5ccccc5)nc4C(N)=O)cc3)CC2)CC1 [compound 21],,48,520,> 300,++ (++ indicates an inhibition from 20% to 50%)
CN1CCN(C2CCN(c3ccc(Nc4nc(N[C@H]5CC[C@H](O)CC5)c(-c5ccccc5)nc4C(N)=O)cc3)CC2)CC1 [compound 23],≤ 20,36,950,,++ (++ indicates an inhibition from 20% to 50%)
COC1CCC(Nc2nc(Nc3ccc(N4CCC(N5CCN(C)CC5)CC4)cc3)c(C(N)=O)nc2-c2ccccc2)C1 (stereo not shown) [compound 35],≤ 20,54,480,,++ (++ indicates an inhibition from 20% to 50%)
CN1CCN(C2CCN(c3ccc(Nc4nc(NC5CCOCC5)c(-c5ccccn5)nc4C(N)=O)cc3)CC2)CC1 [compound 38],20 to 50,48,1800,,
